Test results as given in ChEMBL document CHEMBL3769303, “Discovery of membrane active benzimidazole quinolones-based topoisomerase inhibitors as potential DNA-binding antimicrobial agents” (Eur J Med Chem, 2016).
Converted amounts (≈) assume the structure as drawn. The source made the active and inactive calls. No cut-off for these calls is given here.

System: Saccharomyces cerevisiae
Assay: Antifungal activity against Saccharomyces cerevisiae ATCC 9763 after 24 hrs by micro broth dilution method
Type: functional
Settings: ATCC 9763, 24 h

| SMILES | MIC80 [µg/mL] |
| --- | --- |
| CCn1cc(C(=O)O)c(=O)c2cc(F)c(N3CCN(c4nc5ccccc5[nH]4)CC3)cc21 | 32 (≈ 73.5 µM) |
| CCCCCCCCn1c(CN2CCN(c3cc4c(cc3F)c(=O)c(C(=O)O)cn4C3CC3)CC2)nc2ccccc21 | 16 (≈ 27.9 µM) |
| CCCCCCCCCCn1c(CN2CCN(c3cc4c(cc3F)c(=O)c(C(=O)O)cn4CC)CC2)nc2ccccc21 | 4 (≈ 6.78 µM) |

System: Staphylococcus aureus
Assay: Antibacterial activity against Staphylococcus aureus ATCC 25923 by micro broth dilution method
Type: functional
Settings: not given

| SMILES | MIC [µg/mL] |
| --- | --- |
| CCn1cc(C(=O)O)c(=O)c2cc(F)c(N3CCNCC3)cc21 [NORFLOXACIN] | 2 (≈ 6.26 µM) |
| CCn1cc(C(=O)O)c(=O)c2cc(F)c(N3CCN(c4nc5ccccc5[nH]4)CC3)cc21 | 2 (≈ 4.59 µM) |
| CCCCCCCCn1c(CN2CCN(c3cc4c(cc3F)c(=O)c(C(=O)O)cn4C3CC3)CC2)nc2ccccc21 | 16 (≈ 27.9 µM) |
| CCCCCCCCCCn1c(CN2CCN(c3cc4c(cc3F)c(=O)c(C(=O)O)cn4CC)CC2)nc2ccccc21 | 32 (≈ 54.3 µM) |

System: Staphylococcus aureus
Assay: Antibacterial activity against methicillin-resistant Staphylococcus aureus N315 by micro broth dilution method
Type: functional
Settings: not given

| SMILES | MIC [µg/mL] |
| --- | --- |
| CCn1cc(C(=O)O)c(=O)c2cc(F)c(N3CCNCC3)cc21 [NORFLOXACIN] | 8 (≈ 25.1 µM) |
| CCn1cc(C(=O)O)c(=O)c2cc(F)c(N3CCN(c4nc5ccccc5[nH]4)CC3)cc21 | 4 (≈ 9.19 µM) |
| CCCCCCCCn1c(CN2CCN(c3cc4c(cc3F)c(=O)c(C(=O)O)cn4C3CC3)CC2)nc2ccccc21 | 1 (≈ 1.74 µM) |
| CCCCCCCCCCn1c(CN2CCN(c3cc4c(cc3F)c(=O)c(C(=O)O)cn4CC)CC2)nc2ccccc21 | 8 (≈ 13.6 µM) |

System: Escherichia coli
Assay: Antibacterial activity against Escherichia coli DH52 by micro broth dilution method
Type: functional
Settings: not given

| SMILES | MIC [µg/mL] |
| --- | --- |
| CCn1cc(C(=O)O)c(=O)c2cc(F)c(N3CCNCC3)cc21 [NORFLOXACIN] | 1 (≈ 3.13 µM) |
| CCn1cc(C(=O)O)c(=O)c2cc(F)c(N3CCN(c4nc5ccccc5[nH]4)CC3)cc21 | 2 (≈ 4.59 µM) |
| CCCCCCCCn1c(CN2CCN(c3cc4c(cc3F)c(=O)c(C(=O)O)cn4C3CC3)CC2)nc2ccccc21 | 0.5 (≈ 0.872 µM) |
| CCCCCCCCCCn1c(CN2CCN(c3cc4c(cc3F)c(=O)c(C(=O)O)cn4CC)CC2)nc2ccccc21 | 0.5 (≈ 0.848 µM) |

System: Aspergillus flavus
Assay: Antifungal activity against Aspergillus flavus ATCC 204304 after 24 hrs by micro broth dilution method
Type: functional
Settings: ATCC 204304, 24 h

| SMILES | MIC80 [µg/mL] |
| --- | --- |
| CCn1cc(C(=O)O)c(=O)c2cc(F)c(N3CCN(c4nc5ccccc5[nH]4)CC3)cc21 | 16 (≈ 36.7 µM) |
| CCCCCCCCn1c(CN2CCN(c3cc4c(cc3F)c(=O)c(C(=O)O)cn4C3CC3)CC2)nc2ccccc21 | 1 (≈ 1.74 µM) |
| CCCCCCCCCCn1c(CN2CCN(c3cc4c(cc3F)c(=O)c(C(=O)O)cn4CC)CC2)nc2ccccc21 | 4 (≈ 6.78 µM) |

System: Pseudomonas aeruginosa
Assay: Antibacterial activity against Pseudomonas aeruginosa ATCC 27853 by micro broth dilution method
Type: functional
Settings: not given

| SMILES | MIC [µg/mL] |
| --- | --- |
| CCn1cc(C(=O)O)c(=O)c2cc(F)c(N3CCNCC3)cc21 [NORFLOXACIN] | 16 (≈ 50.1 µM) |
| CCn1cc(C(=O)O)c(=O)c2cc(F)c(N3CCN(c4nc5ccccc5[nH]4)CC3)cc21 | 2 (≈ 4.59 µM) |
| CCCCCCCCn1c(CN2CCN(c3cc4c(cc3F)c(=O)c(C(=O)O)cn4C3CC3)CC2)nc2ccccc21 | 1 (≈ 1.74 µM) |
| CCCCCCCCCCn1c(CN2CCN(c3cc4c(cc3F)c(=O)c(C(=O)O)cn4CC)CC2)nc2ccccc21 | 4 (≈ 6.78 µM) |

System: Calf thymus DNA
Assay: Binding affinity to calf thymus DNA by UV-visible spectroscopy
Type: nucleic-acid assay
Settings: Bos taurus

| SMILES | Activity |
| --- | --- |
| CCn1cc(C(=O)O)c(=O)c2cc(F)c(N3CCNCC3)cc21 [NORFLOXACIN] | Active |

System: Bacillus spizizenii
Assay: Antibacterial activity against Bacillus subtilis ATCC 6633 by micro broth dilution method
Type: functional
Settings: not given

| SMILES | MIC [µg/mL] |
| --- | --- |
| CCn1cc(C(=O)O)c(=O)c2cc(F)c(N3CCNCC3)cc21 [NORFLOXACIN] | 4 (≈ 12.5 µM) |
| CCn1cc(C(=O)O)c(=O)c2cc(F)c(N3CCN(c4nc5ccccc5[nH]4)CC3)cc21 | 2 (≈ 4.59 µM) |
| CCCCCCCCn1c(CN2CCN(c3cc4c(cc3F)c(=O)c(C(=O)O)cn4C3CC3)CC2)nc2ccccc21 | 32 (≈ 55.8 µM) |
| CCCCCCCCCCn1c(CN2CCN(c3cc4c(cc3F)c(=O)c(C(=O)O)cn4CC)CC2)nc2ccccc21 | 4 (≈ 6.78 µM) |

System: not listed separately
Assay: Antifungal activity against Candida mycoderma ATCC 9888 after 24 hrs by micro broth dilution method
Type: functional
Settings: Candida vini

| SMILES | MIC80 [µg/mL] |
| --- | --- |
| CCn1cc(C(=O)O)c(=O)c2cc(F)c(N3CCN(c4nc5ccccc5[nH]4)CC3)cc21 | 16 (≈ 36.7 µM) |
| CCCCCCCCn1c(CN2CCN(c3cc4c(cc3F)c(=O)c(C(=O)O)cn4C3CC3)CC2)nc2ccccc21 | 1 (≈ 1.74 µM) |
| CCCCCCCCCCn1c(CN2CCN(c3cc4c(cc3F)c(=O)c(C(=O)O)cn4CC)CC2)nc2ccccc21 | 8 (≈ 13.6 µM) |

System: Candida albicans
Assay: Antifungal activity against Candida albicans ATCC 10231 after 24 hrs by micro broth dilution method
Type: functional
Settings: ATCC 10231, 24 h

| SMILES | MIC80 [µg/mL] |
| --- | --- |
| CCn1cc(C(=O)O)c(=O)c2cc(F)c(N3CCN(c4nc5ccccc5[nH]4)CC3)cc21 | 8 (≈ 18.4 µM) |
| CCCCCCCCn1c(CN2CCN(c3cc4c(cc3F)c(=O)c(C(=O)O)cn4C3CC3)CC2)nc2ccccc21 | 1 (≈ 1.74 µM) |
| CCCCCCCCCCn1c(CN2CCN(c3cc4c(cc3F)c(=O)c(C(=O)O)cn4CC)CC2)nc2ccccc21 | 16 (≈ 27.1 µM) |

System: not listed separately
Assay: Antibacterial activity against Bacillus proteus ATCC 13315 by micro broth dilution method
Type: functional
Settings: not given

| SMILES | MIC [µg/mL] |
| --- | --- |
| CCn1cc(C(=O)O)c(=O)c2cc(F)c(N3CCNCC3)cc21 [NORFLOXACIN] | 8 (≈ 25.1 µM) |
| CCn1cc(C(=O)O)c(=O)c2cc(F)c(N3CCN(c4nc5ccccc5[nH]4)CC3)cc21 | 1 (≈ 2.3 µM) |
| CCCCCCCCn1c(CN2CCN(c3cc4c(cc3F)c(=O)c(C(=O)O)cn4C3CC3)CC2)nc2ccccc21 | 0.5 (≈ 0.872 µM) |
| CCCCCCCCCCn1c(CN2CCN(c3cc4c(cc3F)c(=O)c(C(=O)O)cn4CC)CC2)nc2ccccc21 | 8 (≈ 13.6 µM) |

System: Salmonella enterica
Assay: Antibacterial activity against Salmonella enterica ATCC 14028 by micro broth dilution method
Type: functional
Settings: not given

| SMILES | MIC [µg/mL] |
| --- | --- |
| CCn1cc(C(=O)O)c(=O)c2cc(F)c(N3CCNCC3)cc21 [NORFLOXACIN] | 4 (≈ 12.5 µM) |
| CCn1cc(C(=O)O)c(=O)c2cc(F)c(N3CCN(c4nc5ccccc5[nH]4)CC3)cc21 | 2 (≈ 4.59 µM) |
| CCCCCCCCn1c(CN2CCN(c3cc4c(cc3F)c(=O)c(C(=O)O)cn4C3CC3)CC2)nc2ccccc21 | 4 (≈ 6.97 µM) |
| CCCCCCCCCCn1c(CN2CCN(c3cc4c(cc3F)c(=O)c(C(=O)O)cn4CC)CC2)nc2ccccc21 | 8 (≈ 13.6 µM) |

System: Cyberlindnera jadinii
Assay: Antifungal activity against Candida utilis ATCC 9950 after 24 hrs by micro broth dilution method
Type: functional
Settings: Williopsis jadinii, ATCC 9950, 24 h

| SMILES | MIC80 [µg/mL] |
| --- | --- |
| CCn1cc(C(=O)O)c(=O)c2cc(F)c(N3CCN(c4nc5ccccc5[nH]4)CC3)cc21 | 8 (≈ 18.4 µM) |
| CCCCCCCCn1c(CN2CCN(c3cc4c(cc3F)c(=O)c(C(=O)O)cn4C3CC3)CC2)nc2ccccc21 | 2 (≈ 3.49 µM) |
| CCCCCCCCCCn1c(CN2CCN(c3cc4c(cc3F)c(=O)c(C(=O)O)cn4CC)CC2)nc2ccccc21 | 4 (≈ 6.78 µM) |

System: Escherichia coli
Assay: Antibacterial activity against Escherichia coli JM109 by micro broth dilution method
Type: functional
Settings: not given

| SMILES | MIC [µg/mL] |
| --- | --- |
| CCn1cc(C(=O)O)c(=O)c2cc(F)c(N3CCNCC3)cc21 [NORFLOXACIN] | 1 (≈ 3.13 µM) |
| CCn1cc(C(=O)O)c(=O)c2cc(F)c(N3CCN(c4nc5ccccc5[nH]4)CC3)cc21 | 8 (≈ 18.4 µM) |
| CCCCCCCCn1c(CN2CCN(c3cc4c(cc3F)c(=O)c(C(=O)O)cn4C3CC3)CC2)nc2ccccc21 | 2 (≈ 3.49 µM) |
| CCCCCCCCCCn1c(CN2CCN(c3cc4c(cc3F)c(=O)c(C(=O)O)cn4CC)CC2)nc2ccccc21 | 32 (≈ 54.3 µM) |

System: Shigella dysenteriae
Assay: Antibacterial activity against Shigella dysenteriae by micro broth dilution method
Type: functional
Settings: not given

| SMILES | MIC [µg/mL] |
| --- | --- |
| CCn1cc(C(=O)O)c(=O)c2cc(F)c(N3CCNCC3)cc21 [NORFLOXACIN] | 16 (≈ 50.1 µM) |
| CCn1cc(C(=O)O)c(=O)c2cc(F)c(N3CCN(c4nc5ccccc5[nH]4)CC3)cc21 | 4 (≈ 9.19 µM) |
| CCCCCCCCn1c(CN2CCN(c3cc4c(cc3F)c(=O)c(C(=O)O)cn4C3CC3)CC2)nc2ccccc21 | 4 (≈ 6.97 µM) |
| CCCCCCCCCCn1c(CN2CCN(c3cc4c(cc3F)c(=O)c(C(=O)O)cn4CC)CC2)nc2ccccc21 | 8 (≈ 13.6 µM) |

System: Micrococcus luteus
Assay: Antibacterial activity against Micrococcus luteus ATCC 4698 by micro broth dilution method
Type: functional
Settings: NCTC 2665

| SMILES | MIC [µg/mL] |
| --- | --- |
| CCn1cc(C(=O)O)c(=O)c2cc(F)c(N3CCNCC3)cc21 [NORFLOXACIN] | 2 (≈ 6.26 µM) |
| CCn1cc(C(=O)O)c(=O)c2cc(F)c(N3CCN(c4nc5ccccc5[nH]4)CC3)cc21 | 4 (≈ 9.19 µM) |
| CCCCCCCCn1c(CN2CCN(c3cc4c(cc3F)c(=O)c(C(=O)O)cn4C3CC3)CC2)nc2ccccc21 | 1 (≈ 1.74 µM) |
| CCCCCCCCCCn1c(CN2CCN(c3cc4c(cc3F)c(=O)c(C(=O)O)cn4CC)CC2)nc2ccccc21 | 16 (≈ 27.1 µM) |

System: Staphylococcus aureus
Assay: Antibacterial activity against methicillin-resistant Staphylococcus aureus N315 at MIC measured after 6 passages
Type: functional, organism-based
Settings: not given

| SMILES | Activity |
| --- | --- |
| CCn1cc(C(=O)O)c(=O)c2cc(F)c(N3CCNCC3)cc21 [NORFLOXACIN] | inactive |
